Reference: patent US12589103B2, “Antimicrobial and antiviral effects of C2-C7 alkyl boronic acids” (CORNELL UNIVERSITY, priority 2019, dated 2026)
“Also recorded” adds a separate entry of the source.

What was measured:
[1] = test system: enteric pathogens (E. coli, Salmonella, Listeria monocytogenes, Klebsiella); experiment: Bacterial growth panel, OD600 growth-curve AUC ratio (heat map); type: cell-based; details: for selectivity for Gram Negative enteropathogens: growth panel; for antibacterial activity / potency against enteric pathogens (growth, AUC+test compound:AUC−test compound): 40 mM (BA, EBA, PBA), 20 mM (BBA), 10 mM (PeBA), 5 mM (HBA, SBA), 1 mM (OBA), 0.5 mM (DBA), 2 mM (DoDBA), 20 mM (FMPBA), 24-48 hrs
[2] = test system: diarrheagenic E. coli and APEC; experiment: Growth of diarrheagenic and APEC E. coli in LB media; type: cell-based; details: 30 mM
Method: (§1) The control sample contained 40 mM NaCl.
Diarrheagenic E. coli pathogroups differ by their preferential host colonization sites, virulence mechanisms, and clinical symptoms.

[3] = test system: AIEC and cancer associated E. coli; experiment: Soft agar motility assay, E. coli; type: cell-based; details: 10 h, AIEC NC101, 541-1, cancer associated E. coli
Method: The ability of ABA C1-3 and BA to impact the motility of E. coli and Salmonella was evaluated using sloppy agar treated with and without BA and C1-C3 alkyl boronic acids. Motility is strongly linked to the virulence phenotype of these bacterial strains. E. coli was grown overnight at 37° C. in LB broth. Soft agar plates (1% tryptone, 0.5% NaCl, 0.25% agar) were prepared the day before the assay was carried out. Sterile NaCl (control), boric or boronic acid stock solution was added into the agar right before pouring the plates. The overnight cultures of E. coli were transferred (3 μl) on to the center of each plate, followed by incubation of the plates at 37° C. for 10 h. E. coli motility was quantified by measuring the diameter of the circular swarming area formed by the growing motile bacteria.

nF-κB = experiment: E. coli induced nF-κB activation in HEK-Blue KD-TLR5 cells (SEAP reporter); type: cell-based; details: m.o.i 20, SEAP at 24 h
Method: HEK-Blue KD-TLR5 cells were used to detect the promotor activation of nF-κB by E. coli infection with or without boric or boronic acid treatment. nF-κB is the prototypical transcription factor for pro-inflammatory cytokines in epithelium. Briefly, cells were seeded in 96-well plates at a density of 5×10^4 cells per well. E. coli was diluted into fresh cell medium containing either NaCl (Control), boric or boronic acid at an m.o.i of 200 as 10× inocula, followed by addition of this inoculum (10 μl) into each well containing 100 μl of medium for a final m.o.i of 20. At 3 h post infection, the cell medium was carefully removed from each well, and replaced with 100 μl of fresh medium containing gentamycin (200 μg mL^−1). At 24 h post infection, the spent medium was collected, and centrifuged at 12,000 r.p.m. for 5 min to remove any particulate matter. QUANTI-Blue Kit (InvivoGen, San Diego, CA, USA) was used to detect the reporter protein SEAP (secreted alkaline phosphatase) following the manufacturer's instructions.

[4] = test system: AIEC in murine macrophage J774A.1 cells; experiment: Uptake and survival of AIEC in J774A.1 macrophages; type: cell-based, E. coli
[5] = test system: AIEC E. coli (541-1, LF82) virulence genes; experiment: Virulence gene expression of AIEC (qRT-PCR); type: cell-based; details: 30 mM
Method: Total RNA was extracted using the Qiagen RNAProtect-RNeasy Kit per manufacturer's protocol. Total RNA was treated with TURBO DNA-Free Kit (Ambion), followed by a two-step qRT-PCR analysis, using Qiagen's QuantiTect Reverse Transcription Kit and QuantiNova SYBR Green PCR Kit. Each qPCR reaction contained 1 μl of cDNA, 0.7 μl of each forward and reverse primers (10 μM), 5 μL of 2× SYBR Green Master Mix, 1 μl of QN ROX Reference Dye and […] of nuclease-free water to make the total volume of 10 μl. The reaction was run with ABI7000 (Applied Biosystems). […] The relative change of a targeted gene expression was calculated by using the equation RQ=2^−ΔΔCT.

[6] = 8-week toxicity study in mice, drinking water; type: in vivo, C57/B18 mice; details: mouse, in vivo
Method: The toxicity of boric and ethylboronic acids were examined with C57/B18 mice. At concentrations of 0, 10, 20, and 40 mM, the two chemicals were given to each group (6 mice) in drinking water. The body weight of each mouse was recorded weekly for 8 weeks, and fecal samples were also collected weekly for 16s sequencing. All animals were sacrificed at the end of 8th week. The length of whole intestine and ileum of each mouse was measured, and sections of the intestine (i. e. small intestine, ileum, cecum, and large intestine) were taken for histopathological and FISH analysis. Fecal samples were used for 16s and lipocalin analysis.
For lipocalin analysis, mouse fecal pellets were collected and frozen at −80 C during toxicity study. To determine lipocalin activity fecal pellets were diluted in microfuge tubes 1/30 with 0.1% Tween20/PBS and vortexed for 20 min at maximum speed. Undissolved particles were removed by centrifuging at 12,000 rpm for 10 min at 4 C. Supernatant was removed and placed into a clean microfuge tube. Lipocalin activity was determined using Mouse Lipocalin-2/NGAL DuoSet ELISA Kit (R&D Systems, DY1857) per manufacturer's instructions.

[7] = DSS induced colitis in mice; type: in vivo, C57BL mice; details: 40 mM in drinking water after DSS (3%)
Method: On the basis of favorable in vivo toxicity tests, the ability of BA and EBA to reduce the severity of inflammation in murine models of microbially driven IBD was tested. The effect of BA and EBA (40 mM) on intestinal inflammation was evaluated in mice with dextran sodium sulfate (“DSS”) induced colitis. The DSS model has a complex etiopathogenesis that involves host-immune and inflammatory responses and the enteric microbiome BA To test their protecting ability to the gastrointestinal tract, boric and ethylboronic acid were given to C57BL mice at 40 mM concentration respectively in drinking water after DSS (3%) treatment. Body weight and fecal samples were taken before and after 6-day treatment. At the 6th day, all mice were euthanized for gross necropsy and histopathology. Intestinal sections were collected and embedded for pathological and FISH analysis. Fecal samples were used for 16s and lipocalin analysis.

[8] = test system: Feline Infectious Peritonitis Virus (FIPV) Black (TN-406); experiment: FIPV replication and syncytium formation, immunofluorescence; type: cell-based, Feline Coronavirus type I; details: 10, 20, 30, 40 mM; Feline Lung cells, 18 h post-infection
AIEC E. coli = details: complex media lacking ethanolamine or fucose
Henle-407 cells = details: higher concentrations
[9] = test system: Gram Positive aerobes and probiotic species (Lactobacillus, Bifidobacteria); experiment: Bacterial growth panel, impact on non-target species (selectivity); type: cell-based; details: for selectivity against Probiotic spp: compared with BA
[10] = test system: probiotic Lactobacillus spp; experiment: Growth of probiotic Lactobacillus strains; details: three Lactobacillus strains
FIPV = details: known drugs; cited from earlier work
Listeria monocytogenes = experiment: Bacterial growth panel, Listeria; type: cell-based
Method: as §1
Growth of bacteria with or without addition of C2-C8 C10, and C12 alkyl boronic acids, BA, or FMPBA was monitored by readings at OD600. […] The area under the curve (“AUC”) of the growth curve was calculated and the results were expressed as AUC+test compound:AUC−test compound.

Feline Lung cells = experiment: Cytotoxicity in FIPV infected Feline Lung cells

## CCCCCCCB(O)O [SBA, heptyl boronic acid]
[1]
  selectivity for Gram Negative enteropathogens: highest

## OB(O)O [BA, Boric acid, reference compound]
[2]
  inhibition of growth of diarrheagenic and APEC E. coli: have activity versus the diarrheagenic E. coli and APEC that varies by pathogroup
[3]
  motility of E. coli: had less impact
nF-κB
  induction of nF-κB by E. coli: reduced the induction of nF-κB by E. coli
[4]; 30 mM during infection, 24 h post infection
  survival of AIEC in J774A.1 macrophages: inhibited the survival
[4]; 30 mM, 1 h
  uptake of AIEC by J774A.1 macrophages: inhibited the uptake
[5]
  pduC expression in 541-1: Upregulation
  pduC expression in LF-82: Upregulation
[6]
  fecal 16S profiles: not significantly different from control mice
[7]
  colon length in DSS colitis versus control mice: significantly different
  fecal lipocalin levels in DSS colitis versus control mice: significantly different
  intestinal bleeding in DSS colitis: observed
[7]; 6-day treatment
  body weight in DSS colitis: reduced
[8]
  replication and syncytium formation of FIPV: able to inhibit replication and syncytium formation
AIEC E. coli
  suppression of AIEC growth in complex media: effective in suppressing AIEC growth

## CCCCCB(O)O [PeBA, pentyl boronic acid]
Henle-407 cells
  cytotoxicity in Henle cells: cytotoxic at higher concentrations

## CCCCCCCCCCB(O)O [DBA, decyl boronic acid, reference compound]
[1]
  antibacterial activity / potency against enteric pathogens (growth, AUC+test compound:AUC−test compound): marked decrease in antibacterial activity
[1]; listed as C10
  antibacterial activity / potency against enteric pathogens (growth, AUC+test compound:AUC−test compound): much less potency than C2-C7 alkyl boronic acids

## Cc1ccc(B(O)O)c(F)c1 [FMPBA, 2-fluro-4-methlyphenylboronic acid, reference compound]
[1]
  antibacterial activity / potency against enteric pathogens (growth, AUC+test compound:AUC−test compound): more generalized and potent antibacterial activity than C2-C7 alkyl boronic acid compounds; also recorded: bacteriocidal
[9]; same concentrations as growth panel
  selectivity: impact on Gram Positive aerobes and probiotic species: not selective and killed more Gram Positive aerobes and probiotic species than C2-C7 alkyl boronic acid compounds; also recorded: minimally selective

## CB(O)O [MBA, methyl boronic acid, reference compound]
[3]
  motility of E. coli: had less impact
[10]
  growth of probiotic Lactobacillus spp: do not suppress growth

## CCCCCCCCB(O)O [OBA, octyl boronic acid, reference compound]
[1]
  antibacterial activity / potency against enteric pathogens (growth, AUC+test compound:AUC−test compound): marked decrease in antibacterial activity
[1]; listed as ABA C8
  antibacterial activity / potency against enteric pathogens (growth, AUC+test compound:AUC−test compound): much less potency than C2-C7 alkyl boronic acids

## N#C[C@@]1(c2ccc3c(N)ncnn23)O[C@H](CO)[C@@H](O)[C@H]1O [GS-441524]
FIPV
  efficacy against FIPV: some efficacy against FIPV

## CCCCB(O)O [BBA, butyl boronic acid]
[1]
  antibacterial activity / potency against enteric pathogens (growth, AUC+test compound:AUC−test compound): high potency vs enteropathogens while somewhat sparing probiotic species
  selectivity for Gram Negative enteropathogens: highest
[9]
  selectivity against Probiotic spp: more selective than BA
Listeria monocytogenes
  selectivity of activity against Listeria monocytogenes: selectivity apparent
[8]
  replication and syncytium formation of FIPV: inhibited replication and syncytium formation of FIPV in infected cells; also recorded: antiviral activity was observed at lower doses without cytotoxicity
Feline Lung cells
  cytotoxicity in antiviral assay: Cytotoxicity was observed

## CCCCCCB(O)O [HBA, hexyl boronic acid]
[1]
  antibacterial activity / potency against enteric pathogens (growth, AUC+test compound:AUC−test compound): high potency vs enteropathogens while somewhat sparing probiotic species
  selectivity for Gram Negative enteropathogens: highest
[9]
  selectivity against Probiotic spp: more selective than BA
Listeria monocytogenes
  selectivity of activity against Listeria monocytogenes: selectivity apparent
[8]
  replication and syncytium formation of FIPV: inhibited replication and syncytium formation of FIPV in infected cells; also recorded: antiviral activity was observed at lower doses without cytotoxicity
Henle-407 cells
  cytotoxicity in Henle cells: cytotoxic at higher concentrations
Feline Lung cells
  cytotoxicity in antiviral assay: Cytotoxicity was observed
